The source of these data is US20120214862A1, “MODULATION OF FACTOR 7 EXPRESSION” (ISIS Pharmaceuticals, Inc., priority 2009, published 2012).

In the oligonucleotide strings, read from the 5' end, every base follows the letter of its sugar. An asterisk marks phosphorothioate; unmarked linkages are phosphodiester. Other units and linkages are bracketed, terminal groups are in braces. A string of capitals states the bases alone. e = 2'-O-(2-methoxyethyl) (MOE); [5mC] = 5-methylcytosine; d = 2'-deoxy (DNA)

The first series concerns human Factor 7 mRNA. Description: Antisense inhibition of human Factor 7 mRNA in HepB3 cells, lipofectin, 50 nM, real-time RT-PCR. The class given is cell-based. To be noted: Example 1; HepB3 cells, lipofectin, 50 nM, ~24 h, relative to untreated control cells. Summed up: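 Percent inhibition, untreated cells as reference: derived from RNA collected about 24 hours post-transfection of 4,000-cell wells, with the human RTS 2927 primer probe set and adjustment for total RNA content (RIBOGREEN®).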
On the technique in general: In qPCR the cycle at which signal appears reflects the starting amount.
As for “407961 (antisense eA*eA*eG*eT*eA*dG*dA*dT*dG*dA*dT*dG*d[5mC]*d[5mC]*dT*eG*eA*eG*eT*eG) [compound 407961]”, the “% Inhibition (human Factor 7 mRNA)” value came out at 34%. Same read-out and setting: the figure for “407914 (antisense e[5mC]*e[5mC]*eA*eG*e[5mC]*dT*dG*dA*d[5mC]*dG*dA*dT*dG*d[5mC]*d[5mC]*e[5mC]*eG*eT*e[5mC]*eA) [compound 407914]” is 82%; for “407608 (antisense eT*eA*eT*eA*eG*dG*dA*d[5mC]*dT*dG*dG*dA*dG*d[5mC]*dT*eG*eG*eT*e[5mC]*e[5mC]) [compound 407608]” it is 13%. Still for that read-out and setting: the figure for “407609 (antisense eA*eG*eA*eA*eG*d[5mC]*dA*dG*dA*dT*dA*dT*dA*dG*dG*eA*e[5mC]*eT*eG*eG) [compound 407609]” is 35%; for “407931 (antisense e[5mC]*eT*eT*e[5mC]*eA*dG*dA*dG*dG*dA*d[5mC]*dA*dG*d[5mC]*dA*e[5mC]*eA*e[5mC]*eA*eT) [compound 407931]” it is 56%; for “407625 (antisense eT*eT*eG*eT*e[5mC]*dG*dA*dA*dA*d[5mC]*dA*dG*dT*dG*dG*eG*e[5mC]*e[5mC]*eG*e[5mC]) [compound 407625]” it is 100%. Regarding “407617 (antisense eT*e[5mC]*e[5mC]*eA*e[5mC]*dA*dT*dG*dG*dA*dT*dA*dT*dT*d[5mC]*eA*eA*e[5mC]*eT*eG) [compound 407617]”, the “% Inhibition (human Factor 7 mRNA)” value was 67%. On the same count and under the same terms, the result for “407929 (antisense eG*e[5mC]*eA*eG*eA*dG*d[5mC]*dA*dG*d[5mC]*dA*dG*d[5mC]*d[5mC]*dT*eG*eA*eG*eG*e[5mC]) [compound 407929]” reads 53%; that for “407959 (antisense eG*e[5mC]*eA*eG*eG*dG*dA*dT*dG*dG*d[5mC]*dA*dT*d[5mC]*dG*eA*eG*eT*e[5mC]*e[5mC]) [compound 407959]”, 0%; that for “407602 (antisense e[5mC]*eT*eG*e[5mC]*eA*dG*d[5mC]*d[5mC]*dA*dG*dG*d[5mC]*dA*dG*d[5mC]*e[5mC]*e[5mC]*eT*eG*eA) [compound 407602]”, 81%.

As for “407946 (antisense eT*e[5mC]*e[5mC]*eA*eA*dA*dA*dA*dT*dG*dA*dA*dT*d[5mC]*dA*eT*eG*eG*eG*e[5mC]) [compound 407946]”, the “% Inhibition (human Factor 7 mRNA)” value is 5%. Regarding “407887 (antisense e[5mC]*e[5mC]*eA*eG*eG*d[5mC]*dA*dG*d[5mC]*d[5mC]*d[5mC]*dT*dG*dA*dA*eG*e[5mC]*e[5mC]*e[5mC]*eA) [compound 407887]”, the “% Inhibition (human Factor 7 mRNA)” value turned out to be 78%. Turning to “407644 (antisense eG*eA*eG*eG*eA*d[5mC]*dA*dG*d[5mC]*dA*d[5mC]*dA*d[5mC]*dA*dT*eG*eG*eA*eG*eT) [compound 407644]”, the “% Inhibition (human Factor 7 mRNA)” value is given as 66%. Regarding “407888 (antisense e[5mC]*eG*eA*eA*eG*dA*d[5mC]*dT*dG*d[5mC]*dA*dG*d[5mC]*d[5mC]*dA*eG*eG*e[5mC]*eA*eG) [compound 407888]”, the “% Inhibition (human Factor 7 mRNA)” value is recorded as 34%. For the substance “407923 (antisense e[5mC]*eA*eG*eG*eA*d[5mC]*dA*dG*dT*dT*d[5mC]*dG*dA*d[5mC]*dG*e[5mC]*eA*eG*e[5mC]*e[5mC]) [compound 407923]”, the “% Inhibition (human Factor 7 mRNA)” value came to 76%.

For “407616 (antisense eT*eG*e[5mC]*eA*eG*dG*dA*d[5mC]*dA*d[5mC]*d[5mC]*d[5mC]*d[5mC]*dG*dT*e[5mC]*eT*eG*e[5mC]*e[5mC]) [compound 407616]”, the “% Inhibition (human Factor 7 mRNA)” value worked out at 64%.

Staying with this series, now noted: Example 4; HepB3 cells, lipofectin, 50 nM, ~24 h, relative to untreated control.
As for “422121 (antisense eG*e[5mC]*eG*e[5mC]*eG*dG*dA*dA*dG*dA*dA*dG*dG*dG*dA*e[5mC]*eG*eG*eA*eA) [compound 422121]”, the “% Inhibition (human Factor 7 mRNA)” value stood at 43%. The same measure, in the same setting: the figure for “422124 (antisense eT*eG*eA*eG*e[5mC]*dG*d[5mC]*dG*dG*dA*dA*dG*dA*dA*dG*eG*eG*eA*e[5mC]*eG) [compound 422124]” is 0%; for “422274 (antisense eT*eT*dA*d[5mC]*dT*dG*dA*dG*d[5mC]*dG*d[5mC]*dG*dG*dA*dA*eG*eA*eA*eG*eG) [compound 422274]” it is 24%.

Still in this series, the particulars now being: Example 6 microwalk, nucleobases 15098 to 15122 of SEQ ID NO: 1; HepB3, lipofectin, 50 nM, ~24 h.
With “422208 (antisense eG*e[5mC]*eA*d[5mC]*dA*d[5mC]*dA*dT*dG*dG*dA*dG*dT*d[5mC]*dA*dG*d[5mC]*eA*eT*e[5mC]) [compound 422208]”, the “% Inhibition (human Factor 7 mRNA)” value is recorded as 56%.

“422135 (antisense eA*eG*e[5mC]*eA*e[5mC]*dA*d[5mC]*dA*dT*dG*dG*dA*dG*dT*d[5mC]*eA*eG*e[5mC]*eA*eT) [compound 422135]”: the “% Inhibition (human Factor 7 mRNA)” value amounted to 53%. In the case of “422285 (antisense eG*e[5mC]*dA*d[5mC]*dA*d[5mC]*dA*dT*dG*dG*dA*dG*dT*d[5mC]*dA*eG*e[5mC]*eA*eT*e[5mC]) [compound 422285]”, the “% Inhibition (human Factor 7 mRNA)” value worked out at 39%. For “422289 (antisense eG*eA*d[5mC]*dA*dG*d[5mC]*dA*d[5mC]*dA*d[5mC]*dA*dT*dG*dG*dA*eG*eT*e[5mC]*eA*eG) [compound 422289]”, the “% Inhibition (human Factor 7 mRNA)” value is reported as 34%.

The same series, now with this note: HepB3 cells, lipofectin, 50 nM antisense oligonucleotide, approximately 24 hours, primer probe set RTS 2927, relative to untreated control.
Turning to “416493 (antisense eT*e[5mC]*eT*eT*eG*dG*dG*dT*dG*dT*dG*dG*dA*dT*dG*eT*eA*eA*eA*eT) [compound 416493]”, the “% Inhibition of human Factor 7 mRNA levels” value is reported as 0%. For “416451 (antisense eG*e[5mC]*e[5mC]*eA*eT*dG*dG*dA*d[5mC]*dA*d[5mC]*dT*d[5mC]*d[5mC]*d[5mC]*e[5mC]*eT*eT*eT*eG) [compound 416451]”, the “% Inhibition of human Factor 7 mRNA levels” value is listed as 75%. As to “416441 (antisense eA*eG*eA*eT*eA*dT*dA*dG*dG*dA*d[5mC]*dT*dG*dG*dA*eG*e[5mC]*eT*eG*eG) [compound 416441]”, the “% Inhibition of human Factor 7 mRNA levels” value was found to be 32%. Consider “416517 (antisense eG*eG*eG*eT*eG*d[5mC]*dA*dG*dT*dA*dG*d[5mC]*dA*dG*dA*eT*eG*e[5mC]*eA*eA) [compound 416517]”, for which the “% Inhibition of human Factor 7 mRNA levels” value is on record as 23%.

With “416443 (antisense eG*eA*eG*eG*e[5mC]*dA*dG*dA*dA*dG*d[5mC]*dA*dG*dA*dT*eA*eT*eA*eG*eG) [compound 416443]”, the “% Inhibition of human Factor 7 mRNA levels” value is listed as 17%. Take “416540 (antisense eG*eG*eA*e[5mC]*eT*dG*dG*dT*dG*dT*d[5mC]*dA*dT*d[5mC]*dT*eG*eG*eG*eA*e[5mC]) [compound 416540]”: the “% Inhibition of human Factor 7 mRNA levels” value was determined as 38%.

The same series, now with this note: HepB3 cells; gapmers (5-10-5, 3-14-3, 2-13-5 MOE) targeted to nucleobases 4868 to 4899 of SEQ ID NO: 1.
In the case of “422293 (antisense eA*eG*dT*dT*d[5mC]*dT*dG*d[5mC]*dA*dG*dG*dA*dG*d[5mC]*dG*eG*e[5mC]*e[5mC]*eT*eA) [compound 422293]”, the “% Inhibition of human Factor 7 mRNA levels” value was found to be 69%.

The series is the same for the next values; noted with them: HepB3 cells; gapmers targeted to nucleobases 11830 to 11869 of SEQ ID NO: 1 (Table 9).
On to “422090 (antisense eG*eG*eT*e[5mC]*eA*dG*dG*dG*d[5mC]*dT*dG*dG*dT*dT*dT*eT*eG*eG*eA*eG) [compound 422090]”, for which the “% Inhibition of human Factor 7 mRNA levels” value was 42%. With “422239 (antisense eG*eA*d[5mC]*dA*dA*dT*dG*dG*dT*d[5mC]*dA*dG*dG*dG*d[5mC]*eT*eG*eG*eT*eT) [compound 422239]”, the “% Inhibition of human Factor 7 mRNA levels” value stood at 67%. On the same count and under the same terms, the figure for “422170 (antisense eG*e[5mC]*eT*dG*dA*dG*dG*dA*dG*dA*d[5mC]*dA*dA*dT*dG*dG*dT*e[5mC]*eA*eG) [compound 422170]” is 28%.

Still in this series, the particulars now being: HepB3 cells; gapmers targeted to nucleobases 13760 to 13789 of SEQ ID NO: 1 (Table 10).
With “422113 (antisense eG*e[5mC]*e[5mC]*eA*e[5mC]*d[5mC]*d[5mC]*dG*d[5mC]*d[5mC]*dG*dG*d[5mC]*dT*d[5mC]*eT*eG*e[5mC]*eT*e[5mC]) [compound 422113]”, the “% Inhibition of human Factor 7 mRNA levels” value is reported as 68%. On to “422108 (antisense e[5mC]*e[5mC]*eG*e[5mC]*e[5mC]*dG*dG*d[5mC]*dT*d[5mC]*dT*dG*d[5mC]*dT*d[5mC]*eA*eT*e[5mC]*e[5mC]*e[5mC]) [compound 422108]”, for which the “% Inhibition of human Factor 7 mRNA levels” value is recorded as 69%. As to “422176 (antisense e[5mC]*e[5mC]*eG*d[5mC]*d[5mC]*dG*dG*d[5mC]*dT*d[5mC]*dT*dG*d[5mC]*dT*d[5mC]*dA*dT*e[5mC]*e[5mC]*e[5mC]) [compound 422176]”, the “% Inhibition of human Factor 7 mRNA levels” value was 52%. As to “422253 (antisense e[5mC]*e[5mC]*dG*d[5mC]*d[5mC]*dG*dG*d[5mC]*dT*d[5mC]*dT*dG*d[5mC]*dT*d[5mC]*eA*eT*e[5mC]*e[5mC]*e[5mC]) [compound 422253]”, the “% Inhibition of human Factor 7 mRNA levels” value is 61%.

Staying with this series, now noted: HepB3 cells; gapmers targeted to nucleobases 14707 to 14732 of SEQ ID NO: 1 (Table 11).
Regarding “422201 (antisense eG*e[5mC]*e[5mC]*dT*dG*dA*dG*dG*d[5mC]*d[5mC]*dA*dG*d[5mC]*dA*dG*dA*dT*e[5mC]*eA*e[5mC]) [compound 422201]”, the “% Inhibition of human Factor 7 mRNA levels” value is on record as 71%. Same read-out and setting: the figure for “422277 (antisense e[5mC]*e[5mC]*dT*dG*dA*dG*dG*d[5mC]*d[5mC]*dA*dG*d[5mC]*dA*dG*dA*eT*e[5mC]*eA*e[5mC]*eG) [compound 422277]” is 56%.

Still in this series, the particulars now being: HepB3 cells; gapmers targeted to nucleobases 15188 to 15211 of SEQ ID NO: 1 (Table 13).
“422227 (antisense eG*e[5mC]*dA*dT*dG*dG*dT*dG*dA*dT*dG*d[5mC]*dT*dT*d[5mC]*eT*eG*eA*eA*eT) [compound 422227]”: the “% Inhibition of human Factor 7 mRNA levels” value turned out to be 67%.
